Data reported in patent publication US10669285B2, “Condensed [1,4] diazepine compounds as autotaxin (ATX) and lysophosphatidic acid (LPA) production inhibitors” (Hoffmann-La Roche Inc., priority 2014, dated 2020).

Biological target: ATX (human His-tagged) (Homo sapiens (Human), UniProt Q13822)
Assay: Human ATX enzyme inhibition assay (fluorescence quenching, MR121 substrate)
Assay type: biochemical
Settings: inhibitory activity against ATX; 30 nM ATX, 1 μM MR121 substrate, 30° C.
Method: Human ATX Enzyme Inhibition Assay
ATX inhibition was measured by a fluorescence quenching assay using a specifically labeled substrate analogue (MR121 substrate). To obtain this MR121 substrate, BOC and TBS protected 6-amino-hexanoic acid (R)-3-({2-[3-(2-{2-[2-(2-amino-ethoxy)-ethoxy]-ethoxy}-ethoxy)-propionylamino]-ethoxy}-hydroxy-phosphoryloxy)-2-hydroxy-propyl ester (Ferguson et al., Org Lett 2006, 8 (10), 2023) was labeled with MR121 fluorophore (CAS 185308-24-1, 1-(3-carboxypropyl)-11-ethyl-1,2,3,4,8,9,10,11-octahydro-dipyrido[3,2-b:2′,3′-i]phenoxazin-13-ium) on the free amine of the ethanolamine side and then, after deprotection, subsequently with tryptophan on the side of the aminohexanoic acid.
Assay working solutions were made as follows:
Assay buffer (50 mM Tris-HCl, 140 mM NaCl, 5 mM KCl, 1 mM CaCl2, 1 mM MgCl2, 0.01% Triton-X-100, pH 8.0;
ATX solution: ATX (human His-tagged) stock solution (1.08 mg/mL in 20 mM bicine, pH 8.5, 0.15 M NaCl, 10% glycerol, 0.3% CHAPS, 0.02% NaN3), diluted to 1.4-2.5× final concentration in assay buffer;
MR121 substrate solution: MR121 substrate stock solution (800 μM MR121 substrate in DMSO), diluted to 2-5× final concentration in assay buffer.
Test compounds (10 mM stock in DMSO, 8 μL) were obtained in 384 well sample plates (Corning Costar #3655) and diluted with 8 μL DMSO. Row-wise serial dilutions were made by transferring 8 μL cpd solution to the next row up to […]. The compound and control solutions were mixed five times and 2 μL were transferred to 384 well assay plates (Corning Costar #3702). Then, 15 μL of 41.7 nM ATX solution was added (30 nM final concentration), mixed five times and then incubated for 15 minutes at 30° C. 10 μL of MR121 substrate solution was added (1 μM final concentration), mixed 30 times and then incubated for 15 minutes at 30° C. Fluorescence was then measured every 2 minutes for 1 hour (Perkin Elmer plate: vision multimode reader); light intensity: 2.5%; exp. time: 1.4 sec, Filter: Fluo_630/690 nm) and IC50 values were calculated from these readouts.

IC50 | SMILES
6 nM | O=C(CCc1ccc(OC(F)(F)F)cc1)N1CCc2nc(C(=O)N3CCc4[nH]nnc4C3)nn2CC1 [Example 20, 1-[2-(1,4,6,7-tetrahydrotriazolo[4,5-c]pyridine-5-carbonyl)-5,6,8,9-tetrahydro-[1,2,4]triazolo[1,5-d][1,4]diazepin-7-yl]-3-[4-(trifluoromethoxy)phenyl]propan-1-one]
6 nM | O=C(OCc1ccc(OC(F)(F)F)c(Cl)c1)N1CCc2nc(C(=O)N3CCc4[nH]nnc4C3)nn2CC1 [Example 41, [3-chloro-4-(trifluoromethoxy)phenyl]methyl 2-(1,4,6,7-tetrahydrotriazolo[4,5-c]pyridine-5-carbonyl)-5,6,8,9-tetrahydro-[1,2,4]triazolo[1,5-d][1,4]diazepine-7-carboxylate]
76 nM | O=C(OCc1ccc(F)cc1)N1CCc2cc(C(=O)N3CCc4[nH]nnc4C3)nn2CC1 [Example 28, 4-fluorobenzyl 2-(4,5,6,7-tetrahydro-1H-[1,2,3]triazolo[4,5-c]pyridine-5-carbonyl)-7,8-dihydro-4H-pyrazolo[1,5-d][1,4]diazepine-6(5H)-carboxylate]
52 nM | COc1ccc(COC(=O)N2CCc3cc(C(=O)N4CCc5[nH]nnc5C4)nn3CC2)cc1 [Example 27, 4-methoxybenzyl 2-(4,5,6,7-tetrahydro-1H-[1,2,3]triazolo[4,5-c]pyridine-5-carbonyl)-7,8-dihydro-4H-pyrazolo[1,5-d][1,4]diazepine-6(5H)-carboxylate]
60 nM | N#Cc1ccc(COC(=O)N2CCc3cc(C(=O)N4CCc5[nH]nnc5C4)nn3CC2)c(F)c1 [Example 8, 4-Cyano-2-fluorobenzyl 2-(4,5,6,7-tetrahydro-1H-[1,2,3]triazolo[4,5-c]pyridine-5-carbonyl)-7,8-dihydro-4H-pyrazolo[1,5-d][1,4]diazepine-6(5H)-carboxylate]
50 nM | O=C(CCc1ccc(OC(F)(F)F)c(Cl)c1)N1CCc2nc(C(=O)N3CCc4[nH]nnc4C3)nn2CC1 [Example 23, 3-[3-chloro-4-(trifluoromethoxy)phenyl]-1-[2-(1,4,6,7-tetrahydrotriazolo[4,5-c]pyridine-5-carbonyl)-5,6,8,9-tetrahydro-[1,2,4]triazolo[1,5-d][1,4]diazepin-7-yl]propan-1-one]
10 nM | CC(C)(C)c1cc(C#N)ccc1OCC(=O)N1CCc2cc(C(=O)N3CCc4[nH]nnc4C3)nn2CC1 [Example 17, 3-tert-Butyl-4-[2-oxo-2-[2-(1,4,6,7-tetrahydrotriazolo[4,5-c]pyridine-5-carbonyl)-4,5,7,8-tetrahydropyrazolo[1,5-d][1,4]diazepin-6-yl]ethoxy]benzonitrile]
2010 nM | O=C(OCc1ccccc1)N1CCc2nc(C(=O)N3CCc4[nH]nnc4C3)cn2CC1 [Example 2, Benzyl 2-(1,4,6,7-tetrahydrotriazolo[4,5-c]pyridine-5-carbonyl)-5,6,8,9-tetrahydroimidazo[1,2-d][1,4]diazepine-7-carboxylate]
21 nM | COc1cc(OC(F)(F)F)ccc1COC(=O)N1CCc2cc(C(=O)N3CCc4[nH]nnc4C3)nn2CC1 [Example 38, 2-methoxy-4-(trifluoromethoxy)benzyl 2-(4,5,6,7-tetrahydro-1H-[1,2,3]triazolo[4,5-c]pyridine-5-carbonyl)-7,8-dihydro-4H-pyrazolo[1,5-d][1,4]diazepine-6(5H)-carboxylate]
7 nM | O=C(OCc1ccc(OC(F)(F)F)c(Cl)c1)N1CCc2nc(C(=O)N3CCc4[nH]nnc4C3)cn2CC1 [Example 42, [3-chloro-4-(trifluoromethoxy)phenyl]methyl 2-(1,4,6,7-tetrahydrotriazolo[4,5-c]pyridine-5-carbonyl)-5,6,8,9-tetrahydroimidazo[1,2-d][1,4]diazepine-7-carboxylate]
6 nM | O=C(OCc1ccc(OC(F)(F)F)c(F)c1)N1CCc2nc(C(=O)N3CCc4[nH]nnc4C3)nn2CC1 [Example 36, [3-fluoro-4-(trifluoromethoxy)phenyl]methyl 2-(1,4,6,7-tetrahydrotriazolo[4,5-c]pyridine-5-carbonyl)-5,6,8,9-tetrahydro-[1,2,4]triazolo[1,5-d][1,4]diazepine-7-carboxylate]
9 nM | O=C(c1cc(OCC2CCOCC2)nc(C2CC2)c1)N1CCc2cc(C(=O)N3CCc4[nH]nnc4C3)nn2CC1 [Example 24, (6-(2-cyclopropyl-6-((tetrahydro-2H-pyran-4-yl)methoxy)isonicotinoyl)-5,6,7,8-tetrahydro-4H-pyrazolo[1,5-d][1,4]diazepin-2-yl)(6,7-dihydro-1H-[1,2,3]triazolo[4,5-c]pyridin-5(4H)-yl)methanone]
14 nM | Cc1cc(OC(F)(F)F)ccc1COC(=O)N1CCc2cc(C(=O)N3CCc4[nH]nnc4C3)nn2CC1 [Example 39, 2-methyl-4-(trifluoromethoxy)benzyl 2-(4,5,6,7-tetrahydro-1H-[1,2,3]triazolo[4,5-c]pyridine-5-carbonyl)-7,8-dihydro-4H-pyrazolo[1,5-d][1,4]diazepine-6(5H)-carboxylate]
17 nM | O=C(OCc1ccc(OC(F)(F)F)cc1)N1CCc2nc(C(=O)N3CCc4[nH]nnc4C3)cn2CC1 [Example 13, [4-(Trifluoromethoxy)phenyl]methyl 2-(1,4,6,7-tetrahydrotriazolo[4,5-c]pyridine-5-carbonyl)-5,6,8,9-tetrahydroimidazo[1,2-d][1,4]diazepine-7-carboxylate]
18 nM | CC(C)(C)C(=O)Nc1cc(C#N)ccc1COC(=O)N1CCc2cc(C(=O)N3CCc4[nH]nnc4C3)nn2CC1 [Example 10, [4-Cyano-2-(2,2-dimethylpropanoylamino)phenyl]methyl 2-(1,4,6,7-tetrahydrotriazolo[4,5-c]pyridine-5-carbonyl)-4,5,7,8-tetrahydropyrazolo[1,5-d][1,4]diazepine-6-carboxylate]
151 nM | COc1ccc(CCC(=O)N2CCc3cc(C(=O)N4CCc5[nH]nnc5C4)nn3CC2)cc1 [Example 19, 3-(4-methoxyphenyl)-1-[2-(1,4,6,7-tetrahydrotriazolo[4,5-c]pyridine-5-carbonyl)-4,5,7,8-tetrahydropyrazolo[1,5-d][1,4]diazepin-6-yl]propan-1-one]
17 nM | O=C(OCc1ccc(OCC(F)(F)F)cc1)N1CCc2cc(C(=O)N3CCc4[nH]nnc4C3)nn2CC1 [Example 40, 4-(2,2,2-trifluoroethoxy)benzyl 2-(4,5,6,7-tetrahydro-1H-[1,2,3]triazolo[4,5-c]pyridine-5-carbonyl)-7,8-dihydro-4H-pyrazolo[1,5-d][1,4]diazepine-6(5H)-carboxylate]
7 nM | O=C(OCc1ccc(C2CC2)cc1)N1CCc2cc(C(=O)N3CCc4[nH]nnc4C3)nn2CC1 [Example 34, 4-cyclopropylbenzyl 2-(4,5,6,7-tetrahydro-1H-[1,2,3]triazolo[4,5-c]pyridine-5-carbonyl)-7,8-dihydro-4H-pyrazolo[1,5-d][1,4]diazepine-6(5H)-carboxylate]
56 nM | O=C1N[C@@H]2CCN(C(=O)c3nc4n(n3)CCN(C(=O)OCc3ccc(OC(F)(F)F)c(F)c3)CC4)C[C@H]2O1 [Example 43, 3-fluoro-4-(trifluoromethoxy)benzyl 2-((3aR,7aR)-2-oxooctahydrooxazolo[5,4-c]pyridine-5-carbonyl)-8,9-dihydro-5H-[1,2,4]triazolo[1,5-d][1,4]diazepine-7(6H)-carboxylate]
18 nM | O=C(CCc1ccc(OC(F)(F)F)c(Cl)c1)N1CCc2cc(C(=O)N3CCc4[nH]nnc4C3)nn2CC1 [Example 22, 3-[3-chloro-4-(trifluoromethoxy)phenyl]-1-[2-(1,4,6,7-tetrahydrotriazolo[4,5-c]pyridine-5-carbonyl)-4,5,7,8-tetrahydropyrazolo[1,5-d][1,4]diazepin-6-yl]propan-1-one]
41 nM | O=C(OCc1ccc(F)c(F)c1)N1CCc2cc(C(=O)N3CCc4[nH]nnc4C3)nn2CC1 [Example 30, (3,4-difluorophenyl)methyl 2-(1,4,6,7-tetrahydrotriazolo[4,5-c]pyridine-5-carbonyl)-4,5,7,8-tetrahydropyrazolo[1,5-d][1,4]diazepine-6-carboxylate]
